Reference: patent US7501430B2 (ArQule, Inc., priority 2006, dated 2009)
pIC50: −log10 of the molar value.

Molecular target: T1, mutant B-RAF (Homo sapiens, UniProt P15056, V600E)
T1 construct: purchased Upstate (Charlottesville, Va.)
Assay: RAF biochemical assay (MEK-1 phosphorylation, anti-phospho MEK1/2 detection)
Conditions: for inhibition at 10 µM: read-out: Mutant B-RAF % inhibition; for pIC50: read-out: Mutant B-RAF IC50
In short: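 Detection is by ELISA: after a 30 min room-temperature reaction, plate-captured GST-MEK-1 is probed with anti-phospho MEK1/2, then an AP-tagged secondary antibody with fluorescent Attophos read-out.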

T1 sequence (P15056 whole entry V600E): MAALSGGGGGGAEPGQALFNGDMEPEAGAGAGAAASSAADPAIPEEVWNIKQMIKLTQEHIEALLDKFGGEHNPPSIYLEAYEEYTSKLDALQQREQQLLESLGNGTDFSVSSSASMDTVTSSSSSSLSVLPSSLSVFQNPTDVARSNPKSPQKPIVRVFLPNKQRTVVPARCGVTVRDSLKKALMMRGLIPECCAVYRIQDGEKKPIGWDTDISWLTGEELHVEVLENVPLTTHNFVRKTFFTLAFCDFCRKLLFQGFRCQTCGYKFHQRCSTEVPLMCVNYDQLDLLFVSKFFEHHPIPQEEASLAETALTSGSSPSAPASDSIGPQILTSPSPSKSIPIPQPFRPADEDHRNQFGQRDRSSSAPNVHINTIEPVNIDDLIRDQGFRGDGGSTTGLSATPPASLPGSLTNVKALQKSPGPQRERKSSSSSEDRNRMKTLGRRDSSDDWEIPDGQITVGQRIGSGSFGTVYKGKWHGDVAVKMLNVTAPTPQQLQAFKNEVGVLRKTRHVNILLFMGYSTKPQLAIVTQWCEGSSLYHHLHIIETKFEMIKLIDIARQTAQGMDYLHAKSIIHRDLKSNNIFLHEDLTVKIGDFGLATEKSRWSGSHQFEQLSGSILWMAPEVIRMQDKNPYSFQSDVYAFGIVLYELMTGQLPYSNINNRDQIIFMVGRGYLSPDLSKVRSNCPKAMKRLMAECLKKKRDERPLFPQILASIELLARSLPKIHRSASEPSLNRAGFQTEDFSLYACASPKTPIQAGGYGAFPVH

**Q.** `COc1cccc(OC)c1C(=O)N1CCC(Nc2nccc(-c3c(-c4ccc(F)cc4)nc4occn34)n2)CC1` [Example 210, N-[1-(2,6-dimethoxybenzoyl)piperidin-4-yl]-4-[6-(4-fluorophenyl)imidazo[2,1-b][1,3]oxazol-5-yl]pyrimidin-2-amine] was tested. Which inhibition at 10 µM did it give?
**A.** The inhibition at 10 µM was 38%.

**Q.** For `CC(=O)NCC(=O)N1CCC(Nc2nccc(-c3c(-c4ccc(F)cc4)nc4occn34)n2)CC1` [Example 211, N-{2-[4-({4-[6-(4-fluorophenyl)imidazo[2,1-b][1,3]oxazol-5-yl]pyrimidin-2-yl}amino)piperidin-1-yl]-2-oxoethyl}acetamide], which inhibition at 10 µM is on record?
**A.** Its inhibition at 10 µM is 29%.

**Q.** For `CC(=O)NC(CO)C(=O)N1CCC(Nc2nccc(-c3c(-c4ccc(F)cc4)nc4occn34)n2)CC1` (stereo not drawn) [Example 212, N-[2-[4-({4-[6-(4-fluorophenyl)imidazo[2,1-b][1,3]oxazol-5-yl]pyrimidin-2-yl}amino)piperidin-1-yl]-1-(hydroxymethyl)-2-oxoethyl]acetamide], which inhibition at 10 µM is on record?
**A.** The inhibition at 10 µM was 43%.

**Q.** With `CCNC(=O)N1CCC(Nc2nccc(-c3c(-c4cccc(OC)c4)nc4sccn34)n2)CC1` [Example 213, N-ethyl-4-({4-[6-(3-methoxyphenyl)imidazo[2,1-b][1,3]thiazol-5-yl]pyrimidin-2-yl}amino)piperidine-1-carboxamide] as the compound, how does the pIC50 read?
**A.** The pIC50 was 5.69.

**Q.** `COc1cccc(-c2nc3sccn3c2-c2ccnc(NC3CCN(S(=O)(=O)c4ccc(F)cc4)CC3)n2)c1` [Example 214, N-{1-[(4-fluorophenyl)sulfonyl]piperidin-4-yl}-4-[6-(3-methoxyphenyl)imidazo[2,1-b][1,3]thiazol-5-yl]pyrimidin-2-amine] was tested. Which pIC50 did it give?
**A.** Its pIC50 is 6.41.

**Q.** With `Cc1ccnc(SCC(=O)N2CCC(Nc3nccc(-c4c(-c5ccc(F)cc5)nc5occn45)n3)CC2)n1` [Example 215, 4-[6-(4-fluorophenyl)imidazo[2,1-b][1,3]oxazol-5-yl]-N-(1-{[(4-methylpyrimidin-2-yl)thio]acetyl}piperidin-4-yl)pyrimidin-2-amine] as the compound, how does the inhibition at 10 µM read?
**A.** Its inhibition at 10 µM is 40%.

**Q.** For `COc1cccc(-c2nc3sccn3c2-c2ccnc(NC3CCN(C(=O)Nc4ccc(N(C)C)cc4)CC3)n2)c1` [Example 216, N-[4-(dimethylamino)phenyl]-4-({4-[6-(3-methoxyphenyl)imidazo[2,1-b][1,3]thiazol-5-yl]pyrimidin-2-yl}amino)piperidine-1-carboxamide], which inhibition at 10 µM is on record?
**A.** Its inhibition at 10 µM is 58%.

**Q.** For `O=S(=O)(c1ccc(F)cc1)N1CCC(Nc2nccc(-c3c(-c4ccc(F)c(F)c4)nc4sccn34)n2)CC1` [Example 217, 4-[6-(3,4-difluorophenyl)imidazo[2,1-b][1,3]thiazol-5-yl]-N-{1-[(4-fluorophenyl)sulfonyl]piperidin-4-yl}pyrimidin-2-amine], which inhibition at 10 µM is on record?
**A.** Its inhibition at 10 µM is 48%.

**Q.** With `CCNC(=O)N1CCC(Nc2nccc(-c3c(-c4ccc(F)c(F)c4)nc4sccn34)n2)CC1` [Example 218, 4-({4-[6-(3,4-difluorophenyl)imidazo[2,1-b][1,3]thiazol-5-yl]pyrimidin-2-yl}amino)-N-ethylpiperidine-1-carboxamide] as the compound, how does the pIC50 read?
**A.** The pIC50 was 5.91.

**Q.** `Cc1cn2c(-c3ccnc(NC4CCN(S(=O)(=O)c5ccc(F)cc5)CC4)n3)c(-c3ccc(F)cc3)nc2s1` [Example 219, 4-[6-(4-fluorophenyl)-2-methylimidazo[2,1-b][1,3]thiazol-5-yl]-N-{1-[(4-fluorophenyl)sulfonyl]piperidin-4-yl}pyrimidin-2-amine] was tested. Which pIC50 did it give?
**A.** The pIC50 was 7.29.

**Q.** With `CCNC(=O)N1CCC(Nc2nccc(-c3c(-c4ccc(F)cc4)nc4sc(C)cn34)n2)CC1` [Example 220, N-ethyl-4-({4-[6-(4-fluorophenyl)-2-methylimidazo[2,1-b][1,3]thiazol-5-yl]pyrimidin-2-yl}amino)piperidine-1-carboxamide] as the compound, how does the pIC50 read?
**A.** Its pIC50 is 6.37.

**Q.** How did the inhibition at 10 µM turn out when `CN(C)c1ccc(C(=O)N2CCC(Nc3nccc(-c4c(-c5ccc(F)c(F)c5)nc5sccn45)n3)CC2)cc1` [Example 221, 4-[6-(3,4-difluorophenyl)imidazo[2,1-b][1,3]thiazol-5-yl]-N-{1-[4-(dimethylamino)benzoyl]piper-idin-4-yl}pyrimidin-2-amine] was run?
**A.** Its inhibition at 10 µM is 42%.

**Q.** Which inhibition at 10 µM does the source give for `CN(C)c1ccc(C(=O)N2CCC(Nc3nccc(-c4c(-c5ccc(F)cc5)nc5occn45)n3)CC2)cc1` [Example 222, N-{1-[4-(dimethylamino)benzoyl]piperidin-4-yl}-4-[6-(4-fluorophenyl)imidazo[2,1-b][1,3]oxazol-5-yl]pyrimidin-2-amine] here?
**A.** The inhibition at 10 µM was 45%.

**Q.** Which inhibition at 10 µM does the source give for `Fc1ccc(-c2nc3sccn3c2-c2ccnc(NC3CCNCC3)n2)cc1F` [Example 223, 4-[6-(3,4-difluorophenyl)imidazo[2,1-b][1,3]thiazol-5-yl]-N-piperidin-4-ylpyrimidin-2-amine] here?
**A.** Its inhibition at 10 µM is 71%.

**Q.** `Cc1cn2c(-c3ccnc(NC4CCNCC4)n3)c(-c3ccc(F)cc3)nc2s1` [Example 224, 4-[6-(4-fluorophenyl)-2-methylimidazo[2,1-b][1,3]thiazol-5-yl]-N-piperidin-4-ylpyrimidin-2-amine] was tested. Which inhibition at 10 µM did it give?
**A.** The inhibition at 10 µM was 70%.

**Q.** For `Cc1cn2c(-c3ccnc(NC4CCN(C(=O)Nc5ccc(N(C)C)cc5)CC4)n3)c(-c3ccc(F)cc3)nc2s1` [Example 225, N-[4-(dimethylamino)phenyl]-4-({4-[6-(4-fluorophenyl)-2-methylimidazo[2,1-b][1,3]thiazol-5-yl]pyrimidin-2-yl}amino)piperidine-1-carboxamide], which inhibition at 10 µM is on record?
**A.** The inhibition at 10 µM was 38%.

**Q.** Which inhibition at 10 µM does the source give for `CN(C)c1ccc(NC(=O)N2CCC(Nc3nccc(-c4c(-c5ccc(F)c(F)c5)nc5sccn45)n3)CC2)cc1` [Example 226, 4-({4-[6-(3,4-difluorophenyl)imidazo[2,1-b][1,3]thiazol-5-yl]pyrimidin-2-yl}amino)-N-[4-(dimethylamino)phenyl]piper-idine-1-carboxamide] here?
**A.** Its inhibition at 10 µM is 61%.

**Q.** For `COc1ccc(Cl)cc1S(=O)(=O)N1CCC(Nc2nccc(-c3c(-c4ccc(F)cc4)nc4occn34)n2)CC1` [Example 227, N-{1-[(5-chloro-2-methoxyphenyl)sulfonyl]piper-idin-4-yl}-4-[6-(4-fluorophenyl)imidazo[2,1-b][1,3]oxazol-5-yl]pyrimidin-2-amine], which inhibition at 10 µM is on record?
**A.** The inhibition at 10 µM was 27%.

**Q.** How did the inhibition at 10 µM turn out when `CC(=O)Nc1nc(C)c(S(=O)(=O)N2CCC(Nc3nccc(-c4c(-c5ccc(F)cc5)nc5occn45)n3)CC2)s1` [Example 228, N-(5-{(4-({4-[6-(4-fluorophenyl)imidazo[2,1-b][1,3]oxazol-5-yl]pyrimidin-2-yl}amino)piperidin-1-yl]sulfonyl}-4-methyl-1,3-thiazol-2-yl)acetamide] was run?
**A.** Its inhibition at 10 µM is 40%.

**Q.** `O=C(O)c1ccc(S(=O)(=O)N2CCC(Nc3nccc(-c4c(-c5ccc(F)cc5)nc5occn45)n3)CC2)cc1` [Example 229, 4-{[4-({4-[6-(4-fluorophenyl)imidazo[2,1-b][1,3]oxazol-5-yl]pyrimidin-2-yl}amino)piperidin-1-yl]sulfonyl)benzoic acid] was tested. Which pIC50 did it give?
**A.** Its pIC50 is 5.86.

**Q.** How did the inhibition at 10 µM turn out when `Cc1nc(C)c(S(=O)(=O)N2CCC(Nc3nccc(-c4c(-c5ccc(F)cc5)nc5occn45)n3)CC2)s1` [Example 230, N-{1-[(2,4-dimethyl-1,3-thiazol-5-yl)sulfonyl]piperidin-4-yl)-4-[6-(4-fluorophenyl)imidazo[2,1-b][1,3]oxazol-5-yl]pyrimidin-2-amine] was run?
**A.** The inhibition at 10 µM was 50%.

**Q.** `COc1cccc(S(=O)(=O)N2CCC(Nc3nccc(-c4c(-c5ccc(F)cc5)nc5occn45)n3)CC2)c1` [Example 231, 4-[6-(4-fluorophenyl)imidazo[2,1-b][1,3]oxazol-5-yl]-N-{1-[(3-methoxyphenyl)sulfonyl]piperidin-4-yl}pyrimidin-2-amine] was tested. Which pIC50 did it give?
**A.** Its pIC50 is 6.39.

**Q.** How did the inhibition at 10 µM turn out when `CCN(C)C(=O)N1CCC(Nc2nccc(-c3c(-c4ccc(F)cc4)nc4sccn34)n2)CC1` [Example 232, N-ethyl-4-({4-[6-(4-fluorophenyl)imidazo[2,1-b][1,3]thiazol-5-yl]pyrimidin-2-yl}amino)-N-methylpiperidine-1-carboxamide] was run?
**A.** Its inhibition at 10 µM is 56%.

**Q.** For `COc1cccc(-c2nc3sccn3c2-c2ccnc(NC3CCN(C(=O)NCc4ccccc4)CC3)n2)c1` [Example 233, N-benzyl-4-({4-[6-(3-methoxyphenyl)imidazo[2,1-b][1,3]thiazol-5-yl]pyrimidin-2-yl}amino)piperidine-1-carboxamide], which inhibition at 10 µM is on record?
**A.** Its inhibition at 10 µM is 53%.

**Q.** `COc1cccc(-c2nc3sccn3c2-c2ccnc(NC3CCN(C(=O)NCc4ccco4)CC3)n2)c1` [Example 234, N-(2-furylmethyl)-4-({4-[6-(3-methoxyphenyl)imidazo[2,1-b][1,3]thiazol-5-yl]pyrimidin-2-yl}amino)piperidine-1-carboxamide] was tested. Which pIC50 did it give?
**A.** The pIC50 was 6.08.

**Q.** How did the inhibition at 10 µM turn out when `Cc1ccccc1S(=O)(=O)N1CCC(Nc2nccc(-c3c(-c4ccc(F)cc4)nc4occn34)n2)CC1` [Example 235, 4-[6-(4-fluorophenyl)imidazo[2,1-b][1,3]oxazol-5-yl]-N-{1-[(2-methylphenyl)sulfonyl]piperidin-4-yl}pyrimidin-2-amine] was run?
**A.** Its inhibition at 10 µM is 30%.

**Q.** For `O=S(=O)(c1c(F)cccc1F)N1CCC(Nc2nccc(-c3c(-c4ccc(F)cc4)nc4occn34)n2)CC1` [Example 236, N-{1-[(2,6-difluorophenyl)sulfonyl]piperidin-4-yl}-4-[6-(4-fluorophenyl)imidazo[2,1-b][1,3]oxazol-5-yl]pyrimidin-2-amine], which inhibition at 10 µM is on record?
**A.** The inhibition at 10 µM was 30%.

**Q.** With `O=S(=O)(c1cccc(F)c1)N1CCC(Nc2nccc(-c3c(-c4ccc(F)cc4)nc4occn34)n2)CC1` [Example 237, 4-[6-(4-fluorophenyl)imidazo[2,1-b][1,3]oxazol-5-yl]-N-{1-[(3-fluorophenyl)sulfonyl]piper-idin-4-yl}pyrimidin-2-amine] as the compound, how does the inhibition at 5 µM (@ 5 uM) read?
**A.** Its inhibition at 5 µM is 85%.

**Q.** How did the pIC50 turn out when `O=S(=O)(c1ccc(Oc2ccccc2)cc1)N1CCC(Nc2nccc(-c3c(-c4ccc(F)cc4)nc4occn34)n2)CC1` [Example 238, 4-[6-(4-fluorophenyl)imidazo[2,1-b][1,3]oxazol-5-yl]-N-{1-[(4-phenoxyphenyl)sulfonyl]piper-idin-4-yl}pyrimidin-2-amine] was run?
**A.** The pIC50 was under 5.00.

**Q.** How did the inhibition at 3 µM (@ 3 uM) turn out when `O=S(=O)(c1ccc(C(F)(F)F)cc1)N1CCC(Nc2nccc(-c3c(-c4ccc(F)cc4)nc4occn34)n2)CC1` [Example 239, 4-[6-(4-fluorophenyl)imidazo[2,1-b][1,3]oxazol-5-yl]-N-(1-{[4-(trifluoromethyl)phenyl]sulfonyl}piperidin-4-yl)pyrimidin-2-amine] was run?
**A.** The inhibition at 3 µM was 52%.
